# According to article PMC7617969, “Carboxylic Acid Bioisosteres Boost Nurr1 Agonist Selectivity” (Journal of medicinal chemistry, 2025):
# Several values for one entry are separate records, joined by “and”; a condition that tells them apart may be missing. Identical values can stand only once.
# Assays:
# Nurr1 = target: T1, Nurr1 (Homo sapiens, UniProt P43354); assay: Gal4-Nurr1 hybrid reporter gene assay; format: cell-based
# T1 construct: expressed in transfected cells; host or cells: HEK293T
# T1 sequence (P43354 360-595 limits assumed): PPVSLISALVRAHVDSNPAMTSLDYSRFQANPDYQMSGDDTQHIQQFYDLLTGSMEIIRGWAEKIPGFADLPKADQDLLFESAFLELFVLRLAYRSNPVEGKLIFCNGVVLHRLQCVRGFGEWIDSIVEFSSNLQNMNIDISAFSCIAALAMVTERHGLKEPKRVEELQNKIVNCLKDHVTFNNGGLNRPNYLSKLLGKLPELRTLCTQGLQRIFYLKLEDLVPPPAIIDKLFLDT
# DHODH = target: T2, DHODH (Homo sapiens, UniProt Q02127); assay: DHODH inhibition colorimetric assay on recombinant human protein; format: biochemical; conditions: recombinant human DHODH, colorimetric; mean ± S.E.M., n ≥ 3; read-out: IC50 (DHODH)
# T2 construct: using an N-terminally truncated recombinant DHODH enzyme as described previously[20]
# T2 sequence (Q02127 31-395): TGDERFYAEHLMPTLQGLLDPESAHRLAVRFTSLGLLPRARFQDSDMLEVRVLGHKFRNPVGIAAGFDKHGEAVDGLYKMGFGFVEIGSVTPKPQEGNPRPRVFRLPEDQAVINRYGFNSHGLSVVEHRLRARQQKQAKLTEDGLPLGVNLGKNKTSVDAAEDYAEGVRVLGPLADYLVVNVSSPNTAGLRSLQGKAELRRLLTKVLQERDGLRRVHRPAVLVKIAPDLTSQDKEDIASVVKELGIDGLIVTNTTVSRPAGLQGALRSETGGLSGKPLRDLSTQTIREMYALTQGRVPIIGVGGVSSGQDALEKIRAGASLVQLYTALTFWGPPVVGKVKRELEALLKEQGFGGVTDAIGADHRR
# rDHODH = target: T3, rDHODH (Rattus norvegicus, UniProt Q63707); assay: rat DHODH inhibition assay; format: biochemical, rats
# T3 construct: using an N-terminally truncated recombinant DHODH enzyme as described previously[20]
# T3 sequence (Q63707 31-395): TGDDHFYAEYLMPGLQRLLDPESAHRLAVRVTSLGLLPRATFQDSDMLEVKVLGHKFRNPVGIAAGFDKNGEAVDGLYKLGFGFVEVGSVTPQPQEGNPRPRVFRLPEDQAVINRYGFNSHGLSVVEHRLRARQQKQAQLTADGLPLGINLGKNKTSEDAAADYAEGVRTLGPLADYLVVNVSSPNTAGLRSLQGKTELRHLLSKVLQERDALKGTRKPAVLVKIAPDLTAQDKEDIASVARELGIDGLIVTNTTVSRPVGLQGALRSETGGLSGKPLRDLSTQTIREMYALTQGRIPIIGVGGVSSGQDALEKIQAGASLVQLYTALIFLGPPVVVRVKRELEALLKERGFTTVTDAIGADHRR
# Experimental: Inhibition of DHODH was measured in vitro using an N-terminally truncated recombinant DHODH enzyme as described previously. The final assay mixture contained 60 μM 2,6-dichloroindophenol, 50 μM decylubiquinone, 100 μM dihydroorotate, and the DHODH protein whose concentration was adjusted in a way that an average slope of approx. 0.2 AU/min served as the positive control (no inhibitor). Measurements were performed in 50 mM TrisHCl, 150 mM KCl, and 0.1% Triton X-100 at pH 8.0 and at 30°C with at least six different concentrations of a test compound. The reaction was started by adding dihydroorotate and measuring the absorption at 600 nm for 2 min. Each test compound concentration used for IC50 calculation was tested in at least three independent experiments.
# Nur77 = target: T4, Nur77 (Homo sapiens, UniProt P22736); assay: Gal4-Nur77 hybrid reporter gene assay; format: cell-based
# T4 construct: expressed in transfected cells; host or cells: HEK293T
# T4 sequence (P22736 360-595 limits assumed): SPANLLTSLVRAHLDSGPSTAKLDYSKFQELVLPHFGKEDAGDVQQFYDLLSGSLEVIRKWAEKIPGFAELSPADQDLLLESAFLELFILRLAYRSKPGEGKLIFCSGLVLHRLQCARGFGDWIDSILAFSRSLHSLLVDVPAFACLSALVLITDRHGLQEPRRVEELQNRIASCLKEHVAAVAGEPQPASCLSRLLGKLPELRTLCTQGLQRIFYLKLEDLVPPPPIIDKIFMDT
# Experimental: (§1) NR modulation was determined in Gal4 hybrid reporter gene assays in HEK293T cells (German Collection of Microorganisms and Cell Culture GmbH, DSMZ) using pFR-Luc (Stratagene, La Jolla, CA, USA; reporter), pRL-SV40 (Promega, Madison, WI, USA; internal control) and pFA-CMV-hNR-LBD[47],[48] plasmids coding for the hinge region and ligand binding domain of the canonical isoform of the respective NR. Cells were cultured in Dulbecco’s modified Eagle’s medium (DMEM), high glucose supplemented with 10% fetal calf serum (FCS), sodium pyruvate (1 mM), penicillin (100 U/mL), and streptomycin (100 μg/mL) at 37°C and 5% CO2 and seeded in 96-well plates (3×10^4 cells/well). […] Five hours after transfection, cells were incubated with the test compounds in Opti-MEM supplemented with penicillin (100 U/mL), streptomycin (100 μg/mL) and 0.1% DMSO for 16 h before luciferase activity was measured using the Dual-Glo Luciferase Assay System (Promega) according to the manufacturer’s protocol on a Tecan Spark luminometer (Tecan Deutschland GmbH, Crailsheim, Germany). Firefly luminescence was divided by Renilla luminescence and multiplied by 1000 resulting in relative light units (RLU) to normalize for transfection efficiency and cell growth. […]
# NOR1 = target: T5, NOR1 (Homo sapiens, UniProt Q92570); assay: Gal4-NOR1 hybrid reporter gene assay; format: cell-based
# T5 construct: expressed in transfected cells; host or cells: HEK293T
# T5 sequence (Q92570 394-623 limits assumed): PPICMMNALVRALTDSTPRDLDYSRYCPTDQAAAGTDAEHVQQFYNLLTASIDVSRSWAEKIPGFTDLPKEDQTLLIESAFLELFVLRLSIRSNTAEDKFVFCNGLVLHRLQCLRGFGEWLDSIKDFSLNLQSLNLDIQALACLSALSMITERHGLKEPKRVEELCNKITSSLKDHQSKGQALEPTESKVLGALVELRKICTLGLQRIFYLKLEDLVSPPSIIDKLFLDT
# Experimental: as §1
# recombinant Nurr1 LBD = target: T6, recombinant Nurr1 LBD (Homo sapiens, UniProt P43354); assay: Isothermal titration calorimetry (ITC); format: binding; conditions: 25 °C
# T6 construct: Nurr1 LBD protein (15 μM, expressed as described previously[18]); made in house
# T6 sequence (P43354 360-595 limits assumed): as the sequence (P43354 360-595 limits assumed) above
# Experimental: ITC experiments were conducted on an Affinity ITC instrument (TA Instruments, New Castle, DE, USA) at 25 °C with a stirring rate of 75 rpm. Nurr1 LBD protein (15 μM, expressed as described previously[18]) in buffer (20 mM Tris, pH 7.5, 100 mM NaCl, 5% glycerol) containing 5% DMSO was titrated with 32 (100 μM in the same buffer containing […]) in 21 injections (1 × 1 µL and 20 × 4 μL) with an injection interval of 120 s. As control experiments, the test compound was titrated to the buffer, and the buffer was titrated to the Nurr1 LBD protein under otherwise identical conditions. The heats of the compound−protein titration were analyzed using NanoAnalyze software (version 3.11.0, TA Instruments) with independent binding model.
# PPAR = assay: Gal4 hybrid reporter gene assay, selectivity panel; format: cell-based, human; conditions: 1 µM; relative activation compared to reference agonists
# Experimental: (§2) NR modulation was determined in Gal4 hybrid reporter gene assays in HEK293T cells (German Collection of Microorganisms and Cell Culture GmbH, DSMZ) using pFR-Luc (Stratagene, La Jolla, CA, USA; reporter), pRL-SV40 (Promega, Madison, WI, USA; internal control) and pFA-CMV-hNR-LBD[47],[48] plasmids coding for the hinge region and ligand binding domain of the canonical isoform of the respective NR. Cells were cultured in Dulbecco’s modified Eagle’s medium (DMEM), high glucose supplemented with 10% fetal calf serum (FCS), sodium pyruvate (1 mM), penicillin (100 U/mL), and streptomycin (100 μg/mL) at 37°C and 5% CO2 and seeded in 96-well plates (3×10^4 cells/well). After 24 h, medium was changed to Opti-MEM without supplements and cells were transiently transfected using Lipofectamine LTX reagent (Invitrogen, Carlsbad, CA, USA) according to the manufacturer’s protocol. Five hours after transfection, cells were incubated with the test compounds in Opti-MEM supplemented with penicillin (100 U/mL), streptomycin (100 μg/mL) and 0.1% DMSO for 16 h before luciferase activity was measured using the Dual-Glo Luciferase Assay System (Promega) according to the manufacturer’s protocol on a Tecan Spark luminometer (Tecan Deutschland GmbH, Crailsheim, Germany). Firefly luminescence was divided by Renilla luminescence and multiplied by 1000 resulting in relative light units (RLU) to normalize for transfection efficiency and cell growth. Fold activation was obtained by dividing the mean RLU of test compound by the mean RLU of the untreated control. All samples were tested in at least three biologically independent experiments in duplicates. For dose-response curve fitting and calculation of EC50 values, the equation “[Agonist] vs. response -- Variable slope (four parameters)” was used in GraphPad Prism (version 7.00, GraphPad Software, La Jolla, CA, USA).
# RAR = assay: Gal4 hybrid reporter gene assay, selectivity panel; format: cell-based, human; conditions: 1 µM; relative activation compared to reference agonists
# Experimental: as §2
# RXR = assay: Gal4 hybrid reporter gene assay, selectivity panel; format: cell-based, human; conditions: 1 µM; relative activation compared to reference agonists
# Experimental: as §2
# THR = assay: Gal4 hybrid reporter gene assay, selectivity panel; format: cell-based, human; conditions: 1 µM; relative activation compared to reference agonists
# Experimental: as §2
# [1] = test system: N27 rat dopaminergic neural cells; assay: Nurr1-regulated gene expression (qPCR); format: cell-based; conditions: N27 cells, 0.3, 1 or 3 μM, 21 h, referenced to GAPDH
smiles,measurement,setting,value
"COc1cccc(-c2ccc(NC(=O)C3=C(c4nn[nH]n4)CCC3)c(F)c2)c1 [compound 32, N-{3-Fluoro-3’-methoxy-[1,1'-biphenyl]-4-yl}-2-(2H-tetrazol-5-yl)cyclopent-1-ene-1-carboxamide]",Nurr1 preference/selectivity over DHODH,Nurr1,> 100 fold
same,EC50,"Nurr1; Gal4-Nurr1 hybrid reporter gene assay, HEK293T cells, mean ± S.E.M., n ≥ 3",90 ± 10 nM
same,max. activation (Nurr1),"Nurr1; Gal4-Nurr1 hybrid reporter gene assay, fold activation vs untreated control",2.5 fold and 2.5±0.1 fold
same,selectivity index DHODH/Nurr1,Nurr1; IC50(DHODH) / EC50(Nurr1),110
same,efficacy_NR4A2,"Nurr1; supplementary csv, max. activation in %",250%
same,IC50,DHODH,10000 ± 2000 nM
same,inhibition at 100 µM,rDHODH,64 ± 2%
same,EC50,Nur77,160 ± 30 nM
same,fold activation (Nur77),Nur77,1.9 fold
same,EC50,NOR1,120 ± 10 nM
same,fold activation (NOR1),NOR1,1.8 fold
same,Kd,recombinant Nurr1 LBD,200 nM
same,activity on PPAR,PPAR,no activity
same,activity on RAR,RAR,no activity
same,activity on RXR,RXR,no activity
same,activity on THR,THR,no activity
same,BDNF mRNA expression,[1],enhanced expression
same,BIRC5 mRNA expression,[1],robust induction
same,CCND2 mRNA expression,[1],enhanced expression
same,CRMP4 mRNA expression,[1],enhanced expression
same,FLRT2 mRNA expression,[1],enhanced expression
same,SOD2 mRNA expression,[1],robust induction
same,Sesn3 mRNA expression,[1],robust induction
same,TH mRNA expression,[1],enhanced the expression
same,XIAP mRNA expression,[1],robust induction
